Assay results taken from the NIST ThermoML archive (doi:10.1021/je4009987).
Numbers after ± are expanded uncertainties.

Assay: mn = molality of the nth substance listed, in mol/kg
Details: 101 kPa, Liquid; for speed of sound: Sing-around technique in a fixed-path interferometer; for mass density: Vibrating tube method

CCOC(=O)CC(C)=O [ethyl 3-oxobutanoate] + O
Details	mass density, 288.15 K [kg/m3]	mass density, 293.15 K [kg/m3]	mass density, 298.15 K [kg/m3]	mass density, 303.15 K [kg/m3]	mass density, 308.15 K [kg/m3]	speed of sound, 288.15 K [m/s]	speed of sound, 293.15 K [m/s]	speed of sound, 298.15 K [m/s]	speed of sound, 303.15 K [m/s]	speed of sound, 308.15 K [m/s]
m1 = 0.076	1000.05 ± 2	999.128 ± 2	997.91 ± 2	996.474 ± 2	994.809 ± 2	1472.6 ± 1.3	1487.8 ± 1.3	1501.3 ± 1.3	1513 ± 1.3	1523.1 ± 1.3
m1 = 0.1625	1001.1 ± 2	1000.13 ± 2	998.838 ± 2	997.358 ± 2	995.64 ± 2	1479.2 ± 1.3	1493.6 ± 1.3	1506.4 ± 1.3	1517.4 ± 1.3	1526.9 ± 1.3
m1 = 0.2495	1002.14 ± 2	1001.1 ± 2	999.76 ± 2	998.22 ± 2	996.445 ± 2	1485.5 ± 1.3	1499.2 ± 1.3	1511.2 ± 1.3	1521.6 ± 1.3	1530.4 ± 1.3
m1 = 0.3767	1003.62 ± 2	1002.48 ± 2	1001.05 ± 2	999.44 ± 2	997.59 ± 2	1494.1 ± 1.3	1506.7 ± 1.3	1517.7 ± 1.3	1527.1 ± 1.3	1535 ± 1.3
m1 = 0.4725	1004.7 ± 2	1003.48 ± 2	1002 ± 2	1000.32 ± 2	998.41 ± 2	1500 ± 1.3	1511.7 ± 1.3	1522 ± 1.3	1530.8 ± 1.3	1538.1 ± 1.3
m1 = 0.5324	1005.38 ± 2	1004.1 ± 2	1002.58 ± 2	1000.86 ± 2	998.9 ± 2	1503.4 ± 1.3	1514.7 ± 1.3	1524.5 ± 1.3	1532.9 ± 1.3	1539.8 ± 1.3
m1 = 0.6848	1007.03 ± 2	1005.6 ± 2	1004 ± 2	1002.18 ± 2	1000.12 ± 2	1511.6 ± 1.3	1521.7 ± 1.3	1530.5 ± 1.3	1537.8 ± 1.3	1543.7 ± 1.3
m1 = 0.7843	1008.1 ± 2	1006.56 ± 2	1004.9 ± 2	1003.01 ± 2	1000.9 ± 2	1516.3 ± 1.3	1525.7 ± 1.3	1533.7 ± 1.3	1540.4 ± 1.3	1545.8 ± 1.3
m1 = 0.9019	1009.31 ± 2	1007.65 ± 2	1005.93 ± 2	1003.94 ± 2	1001.76 ± 2	1521.4 ± 1.3	1529.9 ± 1.3	1537.2 ± 1.3	1543.1 ± 1.3	1547.8 ± 1.3

COC(=O)CC(C)=O [methyl 3-oxobutanoate] + O
Details	mass density, 288.15 K [kg/m3]	mass density, 293.15 K [kg/m3]	mass density, 298.15 K [kg/m3]	mass density, 303.15 K [kg/m3]	mass density, 308.15 K [kg/m3]	speed of sound, 288.15 K [m/s]	speed of sound, 293.15 K [m/s]	speed of sound, 298.15 K [m/s]	speed of sound, 303.15 K [m/s]	speed of sound, 308.15 K [m/s]
m1 = 0.0809	1000.36 ± 2	999.43 ± 2	998.205 ± 2	996.78 ± 2	995.12 ± 2	1472.5 ± 1.3	1487.7 ± 1.3	1501.3 ± 1.3	1513.1 ± 1.3	1523.2 ± 1.3
m1 = 0.1654	1001.65 ± 2	1000.66 ± 2	999.37 ± 2	997.9 ± 2	996.2 ± 2	1477.3 ± 1.3	1491.9 ± 1.3	1504.8 ± 1.3	1516.1 ± 1.3	1525.7 ± 1.3
m1 = 0.285	1003.44 ± 2	1002.36 ± 2	1001 ± 2	999.454 ± 2	997.68 ± 2	1484.7 ± 1.3	1498.3 ± 1.3	1510.5 ± 1.3	1521 ± 1.3	1529.9 ± 1.3
m1 = 0.386	1004.9 ± 2	1003.75 ± 2	1002.33 ± 2	1000.73 ± 2	998.91 ± 2	1490.1 ± 1.3	1503.1 ± 1.3	1514.6 ± 1.3	1524.4 ± 1.3	1532.7 ± 1.3
m1 = 0.4607	1005.98 ± 2	1004.75 ± 2	1003.3 ± 2	1001.65 ± 2	999.79 ± 2	1494.2 ± 1.3	1506.6 ± 1.3	1517.6 ± 1.3	1527 ± 1.3	1534.9 ± 1.3
m1 = 0.5604	1007.37 ± 2	1006.06 ± 2	1004.56 ± 2	1002.85 ± 2	1000.94 ± 2	1499.6 ± 1.3	1511.4 ± 1.3	1521.7 ± 1.3	1530.5 ± 1.3	1537.9 ± 1.3
m1 = 0.6367	1008.4 ± 2	1007.01 ± 2	1005.53 ± 2	1003.74 ± 2	1001.79 ± 2	1503 ± 1.3	1514.2 ± 1.3	1524.1 ± 1.3	1532.5 ± 1.3	1539.5 ± 1.3
m1 = 0.7871	1010.4 ± 2	1008.9 ± 2	1007.35 ± 2	1005.47 ± 2	1003.45 ± 2	1509.8 ± 1.3	1520.2 ± 1.3	1529.1 ± 1.3	1536.7 ± 1.3	1542.9 ± 1.3
m1 = 0.8429	1011.13 ± 2	1009.58 ± 2	1008 ± 2	1006.11 ± 2	1004.04 ± 2	1512.2 ± 1.3	1522.2 ± 1.3	1530.9 ± 1.3	1538.1 ± 1.3	1544 ± 1.3
